This is an account of results in patent US7368578B2, “Five-membered heterocyclic compounds” (Takeda Pharmaceutical Company Limited, priority 2002, dated 2008).

The test deals with T1, human PPARγ1 (Homo sapiens, UniProt P37231).
T1 construct: expressed in transfected cells; host or cells: CHO-K1 cells stably transfected with pVgRXR2-hPPARγ and reporter plasmid pGL3-4ERPP-TK neo
T1 sequence (P37231 1-477 isoform P37231-2): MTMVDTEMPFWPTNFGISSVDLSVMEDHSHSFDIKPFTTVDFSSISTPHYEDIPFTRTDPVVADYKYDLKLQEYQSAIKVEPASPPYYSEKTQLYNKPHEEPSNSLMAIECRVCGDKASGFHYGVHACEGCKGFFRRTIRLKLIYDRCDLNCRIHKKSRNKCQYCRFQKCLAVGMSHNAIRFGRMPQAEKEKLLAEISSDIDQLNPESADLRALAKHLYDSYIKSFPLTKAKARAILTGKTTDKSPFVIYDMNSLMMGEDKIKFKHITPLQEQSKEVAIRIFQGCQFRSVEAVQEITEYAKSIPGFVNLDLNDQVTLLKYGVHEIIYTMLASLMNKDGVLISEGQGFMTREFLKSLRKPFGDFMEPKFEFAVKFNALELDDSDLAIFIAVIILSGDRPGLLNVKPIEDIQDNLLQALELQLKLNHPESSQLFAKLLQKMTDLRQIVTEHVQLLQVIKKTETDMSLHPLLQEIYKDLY
T1 sequence (P19793 1-462 partner): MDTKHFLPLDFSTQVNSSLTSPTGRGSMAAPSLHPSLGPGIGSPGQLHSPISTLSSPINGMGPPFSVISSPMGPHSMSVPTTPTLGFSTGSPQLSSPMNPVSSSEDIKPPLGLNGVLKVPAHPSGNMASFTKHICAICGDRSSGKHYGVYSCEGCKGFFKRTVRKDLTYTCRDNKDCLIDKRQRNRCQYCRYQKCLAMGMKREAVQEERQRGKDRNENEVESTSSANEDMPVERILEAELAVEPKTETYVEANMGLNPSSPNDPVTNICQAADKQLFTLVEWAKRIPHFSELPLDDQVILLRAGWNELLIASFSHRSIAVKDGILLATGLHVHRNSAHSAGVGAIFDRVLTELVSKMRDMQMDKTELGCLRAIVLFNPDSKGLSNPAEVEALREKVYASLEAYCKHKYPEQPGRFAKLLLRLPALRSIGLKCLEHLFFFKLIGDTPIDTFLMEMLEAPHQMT
Put plainly: Human PPARγ1 antagonist assay (luciferase reporter in PPARγ:RXRα:4ERPP/CHO-K1 cells). The class given is cell-based. Conditions: test compound 10^−6 M, 10 nM compound A as stimulant, luciferase activity, 24 hrs, read-out: Inhibitory rate (%). The method, then:
PPARγ:RXRα:4ERPP/CHO-K1 cells (obtained in Reference Example 5a) cultured in Ham's F-12 medium (GIBCO, Inc.) supplemented with 10% fetal bovine serum (TRACE SCIENTIFIC, Ltd.) were seeded in a well of a 96 well white plate at 2×10^4 cells/well and cultured under 37° C. 5% CO2 conditions for 24 hrs. After removal of the medium, Ham's F-12 medium (GIBCO) containing 60 μl of 0.1% BSA (not containing fatty acid) (Wako Pure Chemical Industries, Ltd.), 20 μl of 10^−5M or 10^−6 M test compound and 20 μl of compound A having a final concentration of 10 nM as a stimulant were added, and the cells were cultured under 37° C. 5% CO2 conditions for 24 hrs. After removal of the medium, 40 μl of Pickagene LT7.5 (Wako Pure Chemical Industries, Ltd.) 2-fold diluted with HBSS (HANKS' BALANCED SALT SOLUTION) (BIO WHITTAKER Inc.) was added. After stirring, luciferase activity was measured using 1420 ARVO Multilabel Counter (Wallac, Inc.). In addition, a test similar to the above was conducted for the non-use of the aforementioned test compound alone and for the non-use of the aforementioned test compound and compound A to determine the luciferase activity.
The human PPARγ1 antagonistic activity of the test compound was evaluated using percentages (% inhibition) wherein the luciferase activity when 10 nM compound A alone was added was 0%, and the luciferase activity when the test compound and compound A were not added was 100%. The concentration of the test compound was 10^−5 M for the compounds of Example 42 and 315 and 10^−6 M for other test compounds.
After a CHO-K1 cell cultured in a cell culture flask (150 cm^2) (produced by Corning Costar Corporation, USA) containing Ham's F-12 medium (produced by Life Technologies, Inc., USA) supplemented with 10% fetal bovine serum (produced by Life Technologies, Inc., USA) was detached by treating with 0.5 g/L trypsin-0.2 g/L EDTA (ethylenediaminetetraacetic acid) (produced by Life Technologies, Inc., USA), the cell was washed with PBS (phosphate-buffered saline) (produced by Life Technologies, Inc., USA), centrifuged (1000 rpm, 5 minutes), and then suspended in PBS. Subsequently, the DNA was introduced into the cells under the conditions shown below using GENE PULSER (produced by Bio-Rad Laboratories, USA).
Namely, to a cuvette having a 0.4 cm gap, added were 8×10^6 cells and 10 μg of plasmid pVgRXR2-hPPARγ obtained in Reference Example 4a and 10 μg of reporter plasmid pGL3-4ERPP-TK neo obtained in Reference Example 2a, which was subjected to electroporation at the voltage of 0.25 kV under the capacitance of 960 μF. Subsequently, the cell was transferred into a Ham's F-12 medium containing 10% fetal bovine serum and cultured for 24 hours and then the cells were detached again and centrifuged, and then suspended in HAM F12 medium containing 10% fetal bovine serum supplemented with 500 μg/ml of GENETICIN (produced by Life Technologies, Inc., USA) and 250 μg/ml of ZEOCIN (produced by Invitrogen, USA). The obtained suspension was diluted to the density of 10^4 cells/ml and inoculated to a 96-well plate (produced by Corning Costar Corporation, USA), which was cultured in a CO2 gas incubator at 37° C., whereby obtaining a GENETICIN- and ZEOCIN-resistant transformant. Subsequently, after the transformant cell line thus obtained was cultured in a 24-well plate (produced by Corning Costar Corporation, USA), selected was a cell line in which the luciferase was expressed and induced, i.e., PPARγ:RXRα:4ERPP/CHO-K1 cell by the addition of 10 μM pioglitazone hydrochloride.

As to `CCOP(=O)(/C=C/c1cn(-c2ccccc2)nc1OCc1ccc(OCc2csc(N3CCOCC3)n2)c(OC)c1)OCC` [Example 191, diethyl (E)-2-{3-[(3-methoxy-4-{[2-(morpholin-4-yl)-1,3-thiazol-4-yl]methoxy}benzyl)oxy]-1-phenyl-1H-pyrazol-4-yl}ethenylphosphonate], the inhibition at 1 µM amounted to 79%. To `CCOP(=O)(/C=C/c1cn(-c2ccccc2)nc1OCc1ccc(OCc2nc(-c3cccc(C(=O)O)c3)oc2C)c(OC)c1)OCC` [Example 203, 3-[4-({4-[({4-[(E)-2-(diethoxyphosphoryl)ethenyl]-1-phenyl-1H-pyrazol-3-yl}oxy)methyl]-2-methoxyphenoxy}methyl)-5-methyl-1,3-oxazol-2-yl]benzoic acid] belongs 111%.

In the case of `CCOP(=O)(/C=C/c1cn(-c2ccccc2)nc1OCc1ccc(OCc2nc(-c3cccc(C(=O)OC)c3)oc2C)c(OC)c1)OCC` [Example 211, methyl 3-[4-({4-[({4-[(E)-2-(diethoxyphosphoryl)ethenyl]-1-phenyl-1H-pyrazol-3-yl}oxy)methyl]-2-methoxyphenoxy}methyl)-5-methyl-1,3-oxazol-2-yl]benzoate], the inhibition at 1 µM was 110%. Turning to `CCc1nc(/C=C/c2cn(-c3ccccc3)nc2OCc2ccc(OCc3nc(-c4cccc(C(=O)O)c4)oc3C)c(OC)c2)cs1` [Example 224, 3-[4-({4-[({4-[(E)-2-(2-ethyl-1,3-thiazol-4-yl)ethenyl]-1-phenyl-1H-pyrazol-3-yl}oxy)methyl]-2-methoxyphenoxy}methyl)-5-methyl-1,3-oxazol-2-yl]benzoic acid], the inhibition at 1 µM was 112%. The same measure for `CCOP(=O)(/C=C/c1cn(-c2ccccc2)nc1OCc1ccc(OCc2nc(-c3cccc(C(N)=O)c3)oc2C)c(OC)c1)OCC` [Example 239, diethyl (E)-2-(3-{[4-({2-[3-(carbamoyl)phenyl]-5-methyl-1,3-oxazol-4-yl}methoxy)-3-methoxybenzyl]oxy}-1-phenyl-1H-pyrazol-4-yl)ethenylphosphonate]: 116%.

As to `CCOP(=O)(/C=C/c1cn(-c2ccccc2)nc1OCc1ccc(OCc2nc(-c3ccc(CC(=O)O)cc3)oc2C)c(OC)c1)OCC` [Example 241, {4-[4-({4-[({4-[(E)-2-(diethoxyphosphoryl)ethenyl]-1-phenyl-1H-pyrazol-3-yl}oxy)methyl]-2-methoxyphenoxy}methyl)-5-methyl-1,3-oxazol-2-yl]phenyl}acetic acid], the inhibition at 1 µM came to 113%.

Take `CCOP(=O)(/C=C/c1cn(-c2ccccc2)nc1OCc1ccc(OCc2nc(-c3cccc(CC(=O)O)c3)oc2C)c(OC)c1)OCC` [Example 249, {3-[4-({4-[({4-[(E)-2-(diethoxyphosphoryl)ethenyl]-1-phenyl-1H-pyrazol-3-yl}oxy)methyl]-2-methoxyphenoxy}methyl)-5-methyl-1,3-oxazol-2-yl]phenyl}acetic acid]: the inhibition at 1 µM came to 108%. To `CCOP(=O)(/C=C/c1cn(-c2ccccc2)nc1OCc1ccc(OCc2nc(-c3ccc(OC)c(C(=O)O)c3)oc2C)c(OC)c1)OCC` [Example 252, 5-{4-({4-[({4-[(E)-2-(diethoxyphosphoryl)ethenyl]-1-phenyl-1H-pyrazol-3-yl}oxy)methyl]-2-methoxyphenoxy}methyl)-5-methyl-1,3-oxazol-2-yl}-2-methoxybenzoic acid] belongs 111%; to `COc1cc(COc2nn(-c3ccccc3)cc2/C=C/C#N)ccc1OCc1nc(-c2ccccc2)oc1C` [Example 282, (E)-3-(3-{[3-methoxy-4-(5-methyl-2-phenyl-1,3-oxazol-4-ylmethoxy)benzyl]oxy}-1-phenyl-1H-pyrazol-4-yl)-2-propenonitrile], 69%. To `CCOC(=O)/C=C/c1cn(-c2ccccc2)nc1OCc1ccc(OCc2nc(-c3ccccc3)oc2C)c(OC)c1` [Example 284, ethyl (E)-3-(3-{[3-methoxy-4-(5-methyl-2-phenyl-1,3-oxazol-4-ylmethoxy)benzyl]oxy}-1-phenyl-1H-pyrazol-4-yl)-2-propenoate] belongs 107%.
